Several values for one entry are separate records, joined by “and”; a condition that tells them apart may be missing. Identical values can stand only once. Like-named read-outs stand apart in the source and are kept apart here.
Experiments:
[1] = tested on: Human umbilical vein endothelial cells (HUVEC); experiment: HUVEC proliferation assay, VEGF-dependent growth ([3H]-thymidine incorporation); type: cell-based; conditions: for inhibition at 10 µM / inhibition at 0.1 µM / inhibition at 1 µM: Homo sapiens, HUVEC; for inhibition at 0.1 µM: conc. 100 nM; for inhibition at 1 µM: conc. 1000 nM
Description: Cells were plated into 96-well dishes (4000 cells per well) and allowed to attach overnight. HUVEC were rinsed one time with 100 μl of EBMc-V (EBM supplemented with all above components except serum or VEGF), then 50 ul of EBMc-V was added to cells. Compounds were prepared at 200× stocks in DMSO, diluted into EBMc-V media as 4× stocks, then 50 ul added to appropriate wells. Finally, 100 μl of 2×VEGF (100 ng/ml prepared in EBMc-V; final 50 ng/ml VEGF) was added to all VEGF-treated wells. EBMc-V (no VEGF) was added to negative control wells. Parallel compound-treated plates were prepared except that 100 μl of EGM2 media containing 2% serum but lacking VEGF (EGMc-V) was added. Cells were incubated for 4-5 days at 37° C.
DNA synthesis was assessed by thymidine incorporation. Cells were incubated for 5 hours in 1 μCi of [^3H]-thymidine (PerkinElmer) by addition of 10 ul of 0.1 μCi/ul thymidine prepared in PBS to each well. After incubation, media was aspirated and the cells trypsinized and collected onto a mat using a vacuum-based Micro Cell Harvester (Skatron). [^3H]-thymidine was counted in a liquid scintillation counter. Compounds evaluated for ability to inhibit VEGF-dependent growth of human umbilical vein endothelial cells (HUVEC).

[2] = tested on: Human colon carcinoma DLD-1; experiment: Growth of human tumor xenografts in the nude mouse model; conditions: days 1 through 20; for % T/C Day 7 / % T/C Day 14 / % T/C Day 21 / Relative tumor growth Day 7 / Relative tumor growth Day 14 / Relative tumor growth Day 21: DLD1, nude mouse
Description: Human colon carcinoma DLD-1 cells (American Type Culture Collection, Rockville, Md.) were grown in tissue culture in DMEM (Gibco/BRL, Gaithersburg, Md.) supplemented with 10% FBS (Gemini Bio-Products Inc., Calabasas, Calif.). Athymic nu/nu female mice (Charles River, Wilmington, Mass.) were injected subcutaneously (SC) in the flank area with 6×10^6 DLD-1 cells. When tumors attained a mass of between 75 and 100 mg, the mice were randomly assigned into treatment groups with 5 animals per group. Animals were treated orally (PO) once daily on days 1 through 20 post staging (day zero) with a dose range (50 to 100 mg/kg/dose) of compound prepared in 0.5% Methocel/0.5% Tween 80 or 0.5% Methocel/0.4% Tween 80 as the vehicle control. Tumor mass was determined every 7 days [(length×width^2)/2] for 21 days post-staging. Relative tumor growth (mean tumor mass on days 7, 14 and 21 divided by the mean tumor mass on day zero) was determined for each treatment group.

[3] = target: T1, human KDR (VEGF-receptor-2) (Homo sapiens, UniProt P35968); experiment: KDR kinase enzyme assay (DELFIA, KDR-IC-Flag, poly(Glu4-Tyr) peptide); type: biochemical; conditions: for inhibition at 1 µM / inhibition at 0.1 µM: read-out: % Inhibition; for inhibition at 0.1 µM: Concentration 100 nM
T1 construct: beginning at Met-806; (5′-ATG GAT CCA GAT GM CTC CCA TTG) and ending at Val-1356; made in house
T1 sequence (P35968 806-1356): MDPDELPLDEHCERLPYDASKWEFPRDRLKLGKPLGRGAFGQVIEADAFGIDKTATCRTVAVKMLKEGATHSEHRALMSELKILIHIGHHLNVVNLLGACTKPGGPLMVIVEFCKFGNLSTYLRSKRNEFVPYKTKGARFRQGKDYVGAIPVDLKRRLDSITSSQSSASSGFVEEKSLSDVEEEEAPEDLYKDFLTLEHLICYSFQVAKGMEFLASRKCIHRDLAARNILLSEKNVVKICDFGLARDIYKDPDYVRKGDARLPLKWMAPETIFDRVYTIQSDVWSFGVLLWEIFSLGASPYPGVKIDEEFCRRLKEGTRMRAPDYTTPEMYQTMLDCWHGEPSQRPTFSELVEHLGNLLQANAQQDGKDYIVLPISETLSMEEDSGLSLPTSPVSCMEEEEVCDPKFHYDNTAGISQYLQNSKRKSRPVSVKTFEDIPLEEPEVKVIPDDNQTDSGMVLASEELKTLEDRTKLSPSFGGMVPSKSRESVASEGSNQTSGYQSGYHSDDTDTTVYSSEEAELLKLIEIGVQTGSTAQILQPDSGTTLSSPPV

KDR = KDR (Homo sapiens, UniProt P35968); experiment: cell-based; conditions: for inhibition at 1 µM: read-out: % Inhibition of KDR kinase autophosphorylation in KDR15 cells, compound conc. 1000 nM
KDR, sequence (P35968 20-1356): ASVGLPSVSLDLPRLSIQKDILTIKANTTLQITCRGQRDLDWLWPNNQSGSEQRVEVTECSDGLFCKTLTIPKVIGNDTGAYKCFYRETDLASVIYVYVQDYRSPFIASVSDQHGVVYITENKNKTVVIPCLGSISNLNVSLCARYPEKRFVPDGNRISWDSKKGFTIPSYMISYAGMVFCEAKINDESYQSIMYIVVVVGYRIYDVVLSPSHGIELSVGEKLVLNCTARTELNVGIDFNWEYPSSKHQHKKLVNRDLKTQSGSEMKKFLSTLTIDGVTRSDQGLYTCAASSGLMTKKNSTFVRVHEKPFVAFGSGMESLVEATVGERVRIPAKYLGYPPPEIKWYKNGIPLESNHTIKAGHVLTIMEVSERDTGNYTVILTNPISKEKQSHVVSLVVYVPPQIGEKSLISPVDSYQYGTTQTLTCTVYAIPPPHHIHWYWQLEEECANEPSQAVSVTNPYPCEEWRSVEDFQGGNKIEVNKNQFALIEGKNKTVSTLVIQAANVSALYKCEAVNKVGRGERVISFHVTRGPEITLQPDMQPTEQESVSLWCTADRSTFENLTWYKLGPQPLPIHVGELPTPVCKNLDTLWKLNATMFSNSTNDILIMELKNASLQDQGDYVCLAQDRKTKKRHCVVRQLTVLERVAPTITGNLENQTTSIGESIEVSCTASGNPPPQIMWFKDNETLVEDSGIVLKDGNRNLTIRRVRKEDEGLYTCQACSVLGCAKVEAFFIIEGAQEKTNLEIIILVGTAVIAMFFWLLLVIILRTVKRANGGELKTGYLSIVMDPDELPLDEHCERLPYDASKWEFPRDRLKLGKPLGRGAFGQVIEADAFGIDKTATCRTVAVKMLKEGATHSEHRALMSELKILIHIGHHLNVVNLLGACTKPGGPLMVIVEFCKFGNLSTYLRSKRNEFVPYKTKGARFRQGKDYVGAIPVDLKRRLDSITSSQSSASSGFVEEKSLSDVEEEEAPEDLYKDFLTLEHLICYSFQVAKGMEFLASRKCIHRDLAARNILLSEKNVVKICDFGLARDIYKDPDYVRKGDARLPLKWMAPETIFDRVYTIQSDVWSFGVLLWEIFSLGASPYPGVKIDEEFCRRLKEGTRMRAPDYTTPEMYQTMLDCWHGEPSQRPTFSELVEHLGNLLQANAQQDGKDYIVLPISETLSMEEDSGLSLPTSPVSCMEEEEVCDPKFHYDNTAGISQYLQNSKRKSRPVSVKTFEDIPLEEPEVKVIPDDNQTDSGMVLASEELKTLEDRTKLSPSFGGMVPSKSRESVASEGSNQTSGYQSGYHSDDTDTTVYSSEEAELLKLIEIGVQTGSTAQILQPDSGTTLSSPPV

[4] = target: T1, human KDR (VEGF-receptor-2); experiment: KDR kinase enzyme assay wash-out experiments (irreversible inhibition); type: biochemical
Description: To determine if compounds bound irreversibly to enzyme, plates were washed after the enzyme plus compound pre-incubation step and prior to the addition of ATP. Parallel plates were tested wherein one plate was processed exactly as above while a second plate was washed three times in 100 μl of 4 mM HEPES, pH 7.4, to remove unbound compound. 1× Kinase buffer (30 μl of 1 mM MnCl2, 4 mM HEPES, pH 7.4, 20 μM Na3VO4) and 20 μl of ATP/MgCl2 were added to the wash-out plate. Detection of phosphotyrosinylated peptide for both plates was performed as described above.
For each inhibitor shown in Table 2, two IC50 determinations are shown, one under normal conditions and the other where an intermediate wash-out step is carried out. […] If there was a large increase in the IC50 value in the wash-out experiment compared to the experiment where there was no wash-out, then it was determined that the compound was behaving as a conventional reversible binding inhibitor.

[5] = Concentration 1000 nM, ATP conc. 10 μM
[6] = Concentration 1000 nM, ATP conc. 1000 μM

| SMILES | melting point [°C] | inhibition at 1 µM [3, 5] [%] | inhibition at 1 µM [3, 6] [%] | inhibition at 0.1 µM ([3]; ATP conc. 10 μM) [%] | also measured |
| --- | --- | --- | --- | --- | --- |
| COCCOc1cc2ncnc(NC3=CC(=O)C(Oc4ccccc4)=CC3=O)c2cc1OC | 177 to 180 | – | – | – | – |
| COCCOC1=CC(=O)C(Nc2ncnc3cc(OCCOC)c(OC)cc23)=CC1=O | 211 to 212 | – | – | – | – |
| COCCOc1cc2ncnc(NC3=CC(=O)C(Oc4ccc(-n5ccnc5)cc4)=CC3=O)c2cc1OC [Example 26, 2-[4-(1H-imidazol-1-yl)phenoxy]-5-{[6-methoxy-7-(2-methoxyethoxy)quinazolin-4-yl]amino}benzo-1,4-quinone] | – | – | – | – | inhibition at 10 µM ([1]; conc. 10000 nM): 89%; % Inhibition of VEGF-dependent growth of HUVEC ([1]; conc. 10000 nM): 96% and 99% and 95% and 87% and 91%; S/T = # of Survivors/# of Treated on Day +21 post tumor staging ([2]; 50 mg/kg/dose PO): 5/5; % T/C Day 7 ([2]; 50 mg/kg/dose PO): 84%; % T/C Day 14 ([2]; 50 mg/kg/dose PO): 62%; % T/C Day 21 ([2]; 50 mg/kg/dose PO): 61%; Relative tumor growth Day 7 ([2]; 50 mg/kg/dose PO): 4.21; Relative tumor growth Day 14 ([2]; 50 mg/kg/dose PO): 6.93; Relative tumor growth Day 21 ([2]; 50 mg/kg/dose PO): 10.50; S/T = # of Survivors/# of Treated on Day +21 post tumor staging ([2]; 100 mg/kg/dose PO): 5/5; % T/C Day 7 ([2]; 100 mg/kg/dose PO): 67%; % T/C Day 14 ([2]; 100 mg/kg/dose PO): 55%; % T/C Day 21 ([2]; 100 mg/kg/dose PO): 51%; Relative tumor growth Day 7 ([2]; 100 mg/kg/dose PO): 3.36; Relative tumor growth Day 14 ([2]; 100 mg/kg/dose PO): 6.10; Relative tumor growth Day 21 ([2]; 100 mg/kg/dose PO): 8.80 |
| COc1cc2ncnc(NC3=CC(=O)C(N4CCOCC4)=CC3=O)c2cc1OC [Example 84, 2-[(6,7-dimethoxyquinazolin-4-yl)amino]-5-morpholin-4-ylbenzo-1,4-quinone] | 249 to 250 | 88 | 82 | – | inhibition at 1 µM (KDR): 4% |
| COc1cc2ncnc(NC3=CC(=O)C(N(C)c4ccccc4)=CC3=O)c2cc1OC [Example 85, 2-[(6,7-dimethoxyquinazolin-4-yl)amino]-5-[methyl(phenyl)amino]benzo-1,4-quinone] | 204 to 206 | 62 | 64 | 20 | – |
| COc1cc2ncnc(NC3=CC(=O)C(Nc4ccccc4)=CC3=O)c2cc1OC [Example 86, 2-anilino-5-[(6,7-dimethoxyquinazolin-4-yl)amino]benzo-1,4-quinone] | 258 to 261 | 93 | 96 | 58 | IC50 ([3]; ATP conc. 10 μM): 40.7 nM; IC50 ([4]; no wash): 40.7 nM; IC50 ([4]; wash out): 57.1 nM |
| COc1cc2ncnc(NC3=CC(=O)C(N4CCCCC4)=CC3=O)c2cc1OC [Example 87, 2-[(6,7-dimethoxyquinazolin-4-yl)amino]-5-piperidin-1-ylbenzo-1,4-quinone] | 226 to 227 | 72 | 85 | 19 | – |
| COc1cc2ncnc(NC3=CC(=O)C(N(C)C)=CC3=O)c2cc1OC [Example 88, 2-[(6,7-dimethoxyquinazolin-4-yl)amino]-5-(dimethylamino)benzo-1,4-quinone] | 245 to 250 | 63 | 48 | 28 | inhibition at 1 µM (KDR): 32% |
| CNC1=CC(=O)C(Nc2ncnc3cc(OC)c(OC)cc23)=CC1=O [Example 89, 2-[(6,7-dimethoxyquinazolin-4-yl)amino]-5-(methylamino)benzo-1,4-quinone] | 283 to 285 | 18 | -12 | 11 | – |
| COCCOc1cc2ncnc(NC3=CC(=O)C(Oc4ccccc4C)=CC3=O)c2cc1OC [Example 90, 2-{[6-methoxy-7-(2-methoxyethoxy)quinazolin-4-yl]amino}-5-(2-methylphenoxy)benzo-1,4-quinone] | 134 to 137 | 94 | 96 | – | IC50 ([3]; ATP conc. 10 μM): 30 nM and 7.5 nM and 8.8 nM; % Inhibition [3, 6]: 97%; IC50 ([4]; no wash): 8.8 nM; IC50 ([4]; wash out): 18.5 nM; inhibition at 0.1 µM [1]: 22%; inhibition at 1 µM [1]: 15%; inhibition at 10 µM ([1]; conc. 10000 nM): 95%; IC50 (KDR; IC50 (nM), inhibition of KDR kinase autophosphorylation in KDR15 cells, KDR15 cells, VEGF 50 ng/ml, phospho-KDR-Y996 immunoblot): 236 nM and 147 nM; inhibition at 0.2 µM (KDR; read-out: % Inhibition of KDR kinase autophosphorylation in KDR15 cells, compound conc. 200 nM): 29% |
| COCCOc1cc2ncnc(NC3=CC(=O)C(Oc4cccnc4)=CC3=O)c2cc1OC [Example 91, 2-{[6-methoxy-7-(2-methoxyethoxy)quinazolin-4-yl]amino}-5-(pyridin-3-yloxy)benzo-1,4-quinone] | 189 to 190 | 96 | 97 | 76 | IC50 ([3]; ATP conc. 10 μM): 18.9 nM; IC50 ([4]; no wash): 18.9 nM; IC50 ([4]; wash out): 18.9 nM; inhibition at 0.1 µM [1]: 0%; inhibition at 1 µM [1]: 15%; inhibition at 10 µM ([1]; conc. 10000 nM): 93%; inhibition at 1 µM (KDR): 55% |
| COCCOc1cc2ncnc(NC3=CC(=O)C(Oc4ccc(C)cc4)=CC3=O)c2cc1OC [Example 92, 2-{[6-methoxy-7-(2-methoxyethoxy)quinazolin-4-yl]amino}-5-(4-methylphenoxy)benzo-1,4-quinone] | 171 to 172 | 93 | 97 | 92 | – |
| COc1cc2ncnc(NC3=CC(=O)C(Oc4ccccc4)=CC3=O)c2cc1OC [Example 95, 2-[(6,7-dimethoxyquinazolin-4-yl)amino]-5-phenoxybenzo-1,4-quinone] | 228 to 234 | 96 | 98 | 85 | IC50 ([3]; ATP conc. 10 μM): 3.7 nM; IC50 ([4]; no wash): 4.2 nM; IC50 ([4]; wash out): 6.5 nM |
| COc1cc2ncnc(NC3=CC(=O)C4(c5ccccc5)OC4C3=O)c2cc1OC (stereo not drawn) [Example 100, 4-[(6,7-dimethoxyquinazolin-4-yl)amino]-1-phenyl-7-oxabicyclo[4.1.0]hept-3-ene-2,5-dione] | 252 to 253 | – | – | – | – |
| COCCOc1cc2ncnc(NC3=CC(=O)C(N4CCCCC4)=CC3=O)c2cc1OC [Example 101, 2-{[6-methoxy-7-(2-methoxyethoxy)quinazolin-4-yl]amino}-5-piperidin-1-yl-benzo-1,4-quinone] | 197 to 200 | – | – | – | inhibition at 0.1 µM [1]: 12%; inhibition at 1 µM [1]: 36%; inhibition at 10 µM ([1]; conc. 10000 nM): 94% |
| COc1cc2ncnc(NC3=CC(=O)C4(C(C)C)OC4C3=O)c2cc1OC (stereo not drawn) [Example 107, 4-[(6,7-dimethoxy-4-quinazolinyl)amino]-1-isopropyl-7-oxabicyclo[4.1.0]hept-3-ene-2,5-dione] | 188 to 190 | – | – | – | – |
| COCCOc1cc2ncnc(NC3=CC(=O)C4(Cc5ccccc5)OC4C3=O)c2cc1OC (stereo not drawn) [Example 108, 1-benzyl-4-{[6-methoxy-7-(2-methoxyethoxy)quinazolin-4-yl]amino}-7-oxabicyclo[4.1.0]hept-3-ene-2,5-dione] | 104 to 108 | – | – | – | IC50 ([4]; no wash): 59.8 nM; IC50 ([4]; wash out): 82.6 nM; inhibition at 1 µM (KDR): 68% |
| COCCOc1cc2ncnc(NC3=CC(=O)C(Br)=CC3=O)c2cc1OC [Example 231, 2-bromo-5-{[6-methoxy-7-(2-methoxyethoxy)quinazolin-4-yl]amino}benzo-1,4-quinone] | 200 to 210 | – | – | – | – |
| COCCOc1cc2ncnc(NC3=CC(=O)C(Oc4ccc(-n5ccnc5)cc4)=CC3=O)c2cc1OCCOC [Example 341, 2-{[6,7-bis(2-methoxyethoxy)quinazolin-4-yl]amino}-5-[4-(1H-imidazol-1-yl)phenoxy]benzo-1,4-quinone] | 109 to 115 | – | – | – | – |
| COc1cc2c(NC3=CC(=O)C(Cl)=CC3=O)ncnc2cc1OCC1CCCCO1 (stereo not drawn) [Example 345, 2-chloro-5-{[6-methoxy-7-(tetrahydro-2H-pyran-2-ylmethoxy)quinazolin-4-yl]amino}benzo-1,4-quinone] | 215 to 220 | – | – | – | – |
